# Several values for one entry are separate records, joined by “and”; a condition that tells them apart may be missing. Identical values can stand only once. Entries after “also recorded” stand apart in the source; their conditions may differ.
# Experiments:
# [1] = test system: hippocampal slices from APP/PS1 mice; experiment: CA1 LTP in hippocampal slices of APP/PS1 and WT mice (TSA)
# Description: At this age the Tg mice just start showing the synaptic plasticity and memory impairments [A29] (herein incorporated by reference in its entirety). Basal synaptic transmission (BST) was similar between APP/PS1 and WT mice. We found no difference in BST among the 2 groups as previously shown in mice of this age [A29] (herein incorporated by reference in its entirety). Hippocampal slices were then perfused with TSA (1.65 μM) for 30 min before inducing LTP through tetanic stimulation of the Schaeffer collateral pathway. Potentiation in TSA treated APP/P S1 slices was far greater than in vehicle-treated APP/PS1 slices (FIG. 17). […] The observation that inspired these studies was the result of a series of experiments in which we tested whether a brief application of the HDAC inhibitor TSA was capable of rescuing the defect in LTP shown by slices from 3-4 month-old APP/PS1 mice (for a detailed description of the experiments showing the characterization of these mice [B50]; herein incorporated by reference in its entirety). At this age the transgenic mice just start showing the synaptic plasticity and memory impairments [B14, B50] (each herein incorporated by reference in its entirety)). […] (each herein incorporated by reference in its entirety), basal synaptic transmission (BST) was similar between APP/PS1 and WT mice. Hippocampal slices were then perfused with TSA (1.65 nM) for 30 min before inducing LTP through tetanic stimulation of the Schaeffer collateral pathway. Potentiation in TSA treated APP/PS1 slices was far greater than in vehicle-treated APP/PS1 slices (two-way ANOVA: F1,11=13.166, p=0.004; FIG. 17). […] Thus, HDAC inhibition is capable of rescuing the defect in LTP in the APP/PS1 animal model of Aβ deposition.
# acetylated H4 = experiment: Western blot of hippocampal acetylated H4 after fear conditioning (TSA); assay type: in vivo, mice
# Description: We will also test if defects seen in APP/PS1 mice, compared to WT littermates, are due to epigenetic effects. […] (each herein incorporated by reference in its entirety). Acetylation of H4 in hippocampus from WT and APP/PS1 animals was measured. Vehicle control solution was administered i.p. 2 hrs before FC training. 1 hr after contextual FC, the APP/PS1 and WT mice were euthanized and hippocampi were extracted. […] Whether HDAC inhibition might rescue the histone 4 acetylation levels defect observed in APP/PS1 mice was also tested. Injection of TSA (2 μg/g body weight; i.p) 2 hours prior to contextual fear conditioning enhanced H4 acetylation of APP/PS1 mice (FIG. 22). Without being bound by theory, AD is likely to be a disease with an epigenetic motif and HDAC inhibitors can elevate decreased levels of histone 4 in an AD mouse model.
# APP/PS1 mice display a reduced endogenous level of histone 4 acetylation in response to a learning task. Given that HDAC inhibitors are known to acetylate other molecules besides histones [B49] […] We measured acetylation of H4 in hippocampus from 3 to 4 month old wild-type (WT) and APP/PS1 animals, after training for fear conditioning. […]
# p300 = biological target: T1, p300 (Homo sapiens, UniProt Q09472); experiment: In vitro HAT activation assay, p300; assay type: biochemical; details: in vitro assays; FIG. 72
# T1 construct: we will use the catalytic domain of human CBP, PCAF, p300 and GCNS (Enzo Life Sci., USA); purchased Enzo Life Sci
# Excerpt: Compounds will be tested for HAT activator activity first, using the HAT Assay kit from Active Motif (USA, CA). For this assay, we will use the catalytic domain of human CBP, PCAF, p300 and GCNS (Enzo Life Sci., USA). The catalytic domains for the remaining HATs will be produced using New England Biolabs K. lactis Protein Expression Kit. […] When assayed against all other HATs, they must show at least a 50 fold greater potency towards CBP and/or PCAF.
# HDAC1 = HDAC1 (Homo sapiens, UniProt Q13547); experiment: HDAC1 fluorogenic activity assay; details: for % Activity: Repeat1/Repeat2, listed as OA2
# YAC128 mice = experiment: Open field in YAC128 Huntington's Disease mice; assay type: in vivo; details: for effect of treatment on total locomotion (distance traveled, 30 min): age 6 mo., YF2 5 mg/kg
# Description: Animals: Mouse models of Huntington's Disease (YAC128) versus wildtype (WT) littermates.
# Open field: This assay is a common assay used to monitor total spontaneous locomotor activity and exploratory behavior in mouse models of Huntington's disease (HD). The spontaneous locomotor activity of the animals was measured using an automated photo-beam open-field system (Med-Associates, St Albans, Vt.). Mice were placed individually in the center of a clear open-field chamber (27.9 cm×27.9 cm×20 cm), and their horizontal and vertical activities were measured immediately for 30 min with three 16-beam UR arrays. Locomotor activity was assessed as the distance traveled in 5-min intervals. The number of mice typically used for open field range from 12 to 15 mice.
# [2] = in vivo, ip
# HDAC1, sequence (Q13547 whole entry): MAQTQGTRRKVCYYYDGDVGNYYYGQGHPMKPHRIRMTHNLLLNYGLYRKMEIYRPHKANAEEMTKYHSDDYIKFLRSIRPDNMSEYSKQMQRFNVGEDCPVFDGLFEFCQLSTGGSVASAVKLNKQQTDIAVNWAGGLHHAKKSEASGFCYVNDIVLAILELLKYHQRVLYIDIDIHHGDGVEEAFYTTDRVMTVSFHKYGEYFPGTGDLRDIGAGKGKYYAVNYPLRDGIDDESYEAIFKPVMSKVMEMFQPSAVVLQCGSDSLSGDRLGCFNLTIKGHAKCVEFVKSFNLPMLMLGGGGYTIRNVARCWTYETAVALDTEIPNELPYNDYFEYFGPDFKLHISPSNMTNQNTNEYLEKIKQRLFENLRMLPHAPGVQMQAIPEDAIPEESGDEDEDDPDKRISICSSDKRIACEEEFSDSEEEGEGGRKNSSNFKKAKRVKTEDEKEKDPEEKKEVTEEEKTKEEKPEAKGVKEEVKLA
# T1 sequence (Q09472 1287-1663 limits assumed): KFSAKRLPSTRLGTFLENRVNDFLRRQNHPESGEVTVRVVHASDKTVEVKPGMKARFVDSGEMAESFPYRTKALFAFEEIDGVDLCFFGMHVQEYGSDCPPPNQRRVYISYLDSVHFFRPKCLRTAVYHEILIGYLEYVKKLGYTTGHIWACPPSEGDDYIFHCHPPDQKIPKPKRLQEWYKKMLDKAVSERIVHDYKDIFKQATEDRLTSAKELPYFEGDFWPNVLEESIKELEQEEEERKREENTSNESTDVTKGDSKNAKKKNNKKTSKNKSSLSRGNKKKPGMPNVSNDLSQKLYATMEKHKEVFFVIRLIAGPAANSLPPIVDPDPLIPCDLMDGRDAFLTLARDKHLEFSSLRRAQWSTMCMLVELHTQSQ
smiles,measurement,setting,value
"CC(/C=C/C(=O)NO)=C\[C@@H](C)C(=O)c1ccc(N(C)C)cc1 [TSA, trichostatin A]",baseline transmission,[1]; APP/PS1 and WT slices that received no tetanus,did not affect
same,amplitude of LTP in WT slices,"[1]; WT slices, TSA perfused 30 min",did not change; also recorded: no effect
same,potentiation (LTP) vs vehicle-treated APP/PS1 slices,"[1]; slices of 3-4 month-old APP/PS1 mice, TSA perfused 30 min before tetanus",far greater; also recorded: reverses
same,H4 acetylation in hippocampus of APP/PS1 mice,"acetylated H4; TSA 2 mg/kg i.p. 2 hours prior to fear conditioning, 1 hour after training",enhanced; also recorded: rescued; also recorded: enhancement
same,H4 acetylation levels in WT mice,"acetylated H4; TSA 2 mg/kg i.p., vs vehicle-treated WT",increased
CCOc1cccc(OCCN(C)C)c1C(=O)Nc1ccc(Cl)c(C(F)(F)F)c1 [YF2],effect on p300 activity,p300,did not interfere; also recorded: increases p300 activity
same,IC50,HDAC1,> 200 µM
same,% Activity,HDAC1; OA2 Log[nM] 0.5,98.80% and 98.28%
same,% Activity,HDAC1; OA2 Log[nM] 1.0,97.64% and 98.21%
same,% Activity,HDAC1; OA2 Log[nM] 1.5,96.72% and 97.14%
same,% Activity,HDAC1; OA2 Log[nM] 2.0,96.42% and 96.10%
same,% Activity,HDAC1; OA2 Log[nM] 2.5,95.81% and 97.49%
same,% Activity,HDAC1; OA2 Log[nM] 3.0,96.63% and 95.68%
same,% Activity,HDAC1; OA2 Log[nM] 3.5,93.12% and 97.60%
same,% Activity,HDAC1; OA2 Log[nM] 4.0,91.35% and 92.53%
same,% Activity,HDAC1; OA2 Log[nM] 4.5,92.01% and 90.19%
same,% Activity,HDAC1; OA2 Log[nM] 5.3,63.73% and 61.76%
same,effect of treatment on total rearing or vertical movements,YAC128 mice; female YAC128 mice,no significant effect
same,"effect of treatment on total locomotion (distance traveled, 30 min)",YAC128 mice; female mice,diminish significantly (i.e. worsen)
same,effect of treatment on total rearing or vertical movements,YAC128 mice; male YAC128 mice,no significant effect
same,"effect of treatment on total locomotion (distance traveled, 30 min)",YAC128 mice; male mice,no significant effect
same,dose up to which no adverse effects were induced,[2],up to 300 mg/kg

# From US10640457B2, “Histone acetyltransferase activators and uses thereof” (The Trustees of Columbia University in the City of New York, priority 2009, dated 2020)
